Patent publication US20220016115A1, “USP19 INHIBITORS FOR USE IN THERAPY” (ALMAC DISCOVERY LIMITED, priority 2018, published 2022)

Each molecule was assayed against T1, USP19 (Homo sapiens, UniProt O94966) (assay: USP19 fluorescence polarisation (FP) homogeneous assay). Details: Ubiquitin-Lys-TAMRA substrate, full-length USP19 2.5 nM, average of at least two duplicate experiments.
T1 sequence (O94966 1-1318): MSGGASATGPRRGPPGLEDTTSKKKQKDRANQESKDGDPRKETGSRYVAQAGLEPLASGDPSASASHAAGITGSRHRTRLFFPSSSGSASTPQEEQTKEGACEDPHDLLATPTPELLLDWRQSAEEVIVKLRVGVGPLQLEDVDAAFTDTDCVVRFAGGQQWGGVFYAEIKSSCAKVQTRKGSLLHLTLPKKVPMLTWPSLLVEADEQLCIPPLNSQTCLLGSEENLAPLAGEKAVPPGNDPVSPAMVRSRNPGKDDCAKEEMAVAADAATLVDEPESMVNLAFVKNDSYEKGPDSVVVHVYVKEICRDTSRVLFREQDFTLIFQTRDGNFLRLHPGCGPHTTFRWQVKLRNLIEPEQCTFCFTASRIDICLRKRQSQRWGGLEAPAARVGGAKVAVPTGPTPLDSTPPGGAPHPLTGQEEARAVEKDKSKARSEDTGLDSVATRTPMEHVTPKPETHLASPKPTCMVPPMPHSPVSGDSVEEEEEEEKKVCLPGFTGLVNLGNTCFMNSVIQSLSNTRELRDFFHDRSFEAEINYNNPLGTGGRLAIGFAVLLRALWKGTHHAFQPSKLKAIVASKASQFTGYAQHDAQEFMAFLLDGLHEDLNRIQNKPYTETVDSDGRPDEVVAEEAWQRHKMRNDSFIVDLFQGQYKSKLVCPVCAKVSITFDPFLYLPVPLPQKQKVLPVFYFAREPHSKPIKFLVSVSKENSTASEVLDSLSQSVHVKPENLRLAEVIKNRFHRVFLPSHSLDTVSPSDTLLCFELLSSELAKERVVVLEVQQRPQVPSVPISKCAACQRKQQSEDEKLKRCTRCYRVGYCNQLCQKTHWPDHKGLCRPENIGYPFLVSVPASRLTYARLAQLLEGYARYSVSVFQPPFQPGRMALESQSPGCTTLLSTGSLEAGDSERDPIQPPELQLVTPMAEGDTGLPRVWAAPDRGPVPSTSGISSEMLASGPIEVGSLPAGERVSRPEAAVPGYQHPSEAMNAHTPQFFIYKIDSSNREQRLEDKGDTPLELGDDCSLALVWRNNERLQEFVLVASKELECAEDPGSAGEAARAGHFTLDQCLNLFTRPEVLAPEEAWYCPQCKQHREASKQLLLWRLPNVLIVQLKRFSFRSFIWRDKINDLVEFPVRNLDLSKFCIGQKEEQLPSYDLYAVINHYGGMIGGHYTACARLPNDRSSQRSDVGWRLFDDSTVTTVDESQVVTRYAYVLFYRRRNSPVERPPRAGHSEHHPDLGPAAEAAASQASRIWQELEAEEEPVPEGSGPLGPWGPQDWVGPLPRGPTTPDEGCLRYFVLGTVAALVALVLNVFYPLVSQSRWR
Type: biochemical
Parameters: Full-length USP19 was purchased from Boston Biochem (E-576); purchased Boston Biochem E-576
In short: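 Inhibitors serially diluted in buffer (200 μM to 2 μM, 8-18 points) and preincubated 30 min at RT before starting with 500 nM Ub substrate.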

| SMILES | IC50 |
| --- | --- |
| C[C@H](CC1CCCCC1)C(=O)N1CCC(O)(Cn2cc(C(=O)N(C)C)c(-c3ccccc3)cc2=O)C2(CCCCC2)C1 (stereo partly drawn) [Example 237, 1-((2-((R)-3-Cyclohexyl-2-methylpropanoyl)-5-hydroxy-2-azaspiro[5.5]undecan-5-yl)methyl)-N,N-dimethyl-6-oxo-4-phenyl-1,6-dihydropyridine-3-carboxamide] | < 500 nM |
| C[C@H](CC1CCCCC1)C(=O)N1CCC(O)(Cn2cc(C(=O)N3CCNCC3)c(-c3ccccc3)cc2=O)C2(CCCCC2)C1 (stereo partly drawn) [Example 238, 1-((2-((R)-3-Cyclohexyl-2-methylpropanoyl)-5-hydroxy-2-azaspiro[5.5]undecan-5-yl)methyl)-4-phenyl-5-(piperazine-1-carbonyl)pyridin-2(1H)-one] | < 500 nM |
| C[C@H](CC1CCCCC1)C(=O)N1CC[C@@](O)(Cn2cc(C(=O)N3CCOCC3)c(-c3ccccc3)cc2=O)C2(CCCC2)C1 [Example 239, 1-(((S)-7-((R)-3-Cyclohexyl-2-methylpropanoyl)-10-hydroxy-7-azaspiro[4.5]decan-10-yl)methyl)-5-(morpholine-4-carbonyl)-4-phenylpyridin-2(1H)-one] | < 500 nM |
| C[C@H](CC1CCCCC1)C(=O)N1CC[C@@](O)(Cn2cc(C(=O)N3CCN(C)CC3)c(-c3ccccc3)cc2=O)C2(CCCC2)C1 [Example 240, 1-(((S)-7-((R)-3-Cyclohexyl-2-methylpropanoyl)-10-hydroxy-7-azaspiro[4.5]decan-10-yl)methyl)-5-(4-methylpiperazine-1-carbonyl)-4-phenylpyridin-2(1 H)-one] | < 500 nM |
| CN(C)C(=O)c1cn(C[C@]2(O)CCN(C(=O)[C@H](CO)CC(F)(F)F)CC23CCCC3)c(=O)cc1-c1ccccc1 [Example 247, 1-(((S)-10-Hydroxy-7-((S)-4,4,4-trifluoro-2-(hydroxymethyl)butanoyl)-7-azaspiro[4.5]decan-10-yl)methyl)-N,N-dimethyl-6-oxo-4-phenyl-1,6-dihydropyridine-3-carboxamide] | < 500 nM |
| O=C(c1cn(C[C@]2(O)CCN(C(=O)[C@H](CO)CC(F)(F)F)CC23CCCC3)c(=O)cc1-c1ccccc1)N1CCOCC1 [Example 248, 1-(((S)-10-Hydroxy-7-((S)-4,4,4-trifluoro-2-(hydroxymethyl)butanoyl)-7-azaspiro[4.5]decan-10-yl)methyl)-5-(morpholine-4-carbonyl)-4-phenylpyridin-2(1H)-one] | < 500 nM |
| O=C(c1cn(C[C@]2(O)CCN(C(=O)[C@H](CO)CC(F)(F)F)CC23CCCC3)c(=O)cc1-c1ccccc1)N1CCNCC1 [Example 249, 1-(((S)-10-Hydroxy-7-((S)-4,4,4-trifluoro-2-(hydroxymethyl)butanoyl)-7-azaspiro[4.5]decan-10-yl)methyl)-4-phenyl-5-(piperazine-1-carbonyl)pyridin-2(1H)-one] | < 500 nM |
| C[C@H](CC(F)(F)F)C(=O)N1CC[C@@](O)(Cn2cc(C(=O)N3CCOCC3)c(-c3ccccc3)cc2=O)C2(CCCC2)C1 [Example 250, 1-(((S)-10-Hydroxy-7-((R)-4,4,4-trifluoro-2-methylbutanoyl)-7-azaspiro[4.5]decan-10-yl)methyl)-5-(morpholine-4-carbonyl)-4-phenylpyridin-2(1H)-one] | < 500 nM |

Other lines, results leading:

| IC50 | SMILES |
| --- | --- |
| < 500 nM | C[C@H](CC(F)(F)F)C(=O)N1CC[C@@](O)(Cn2cc(C(=O)N3CCN(C)CC3)c(-c3ccccc3)cc2=O)C2(CCCC2)C1 [Example 251, 1-(((S)-10-Hydroxy-7-((R)-4,4,4-trifluoro-2-methylbutanoyl)-7-azaspiro[4.5]decan-10-yl)methyl)-5-(4-methylpiperazine-1-carbonyl)-4-phenylpyridin-2(1 H)-one] |
| < 500 nM | CCOC(=O)c1cn(C[C@]2(O)CCN(C(=O)[C@H](C)CC3CCCCC3)CC23CCCC3)c(=O)cc1-c1ccccc1 [Example 252, Ethyl 1-(((S)-7-((R)-3-cyclohexyl-2-methylpropanoyl)-10-hydroxy-7-azaspiro[4.5]decan-10-yl)methyl)-6-oxo-4-phenyl-1,6-dihydropyridine-3-carboxylate] |
| < 500 nM | C[C@H](CC1CCCCC1)C(=O)N1CC[C@@](O)(Cn2cc(C(=O)O)c(-c3ccccc3)cc2=O)C2(CCCC2)C1 [Example 253, 1-(((S)-7-((R)-3-Cyclohexyl-2-methylpropanoyl)-10-hydroxy-7-azaspiro[4.5]decan-10-yl)methyl)-6-oxo-4-phenyl-1,6-dihydropyridine-3-carboxylic acid] |
| < 500 nM | O=C([C@@H]1CCNC[C@H]1c1ccccc1)N1CCC(O)(Cn2cnc(-c3ccccc3)cc2=O)C2(CCCC2)C1 (stereo partly drawn) [Example 254, 3-((10-Hydroxy-7-((3R,4R)-3-phenylpiperidine-4-carbonyl)-7-azaspiro[4.5]decan-10-yl)methyl)-6-phenylpyrimidin-4(3H)-one] |
| < 500 nM | C[C@H](CC(F)(F)F)C(=O)N1CC[C@@](O)(Cn2cnc(-c3ccccc3)cc2=O)C2(CCCC2)C1 [Example 255, 3-(((S)-10-Hydroxy-7-((R)-4,4,4-trifluoro-2-methylbutanoyl)-7-azaspiro[4.5]decan-10-yl)methyl)-6-phenylpyrimidin-4(3H)-one] |
| < 500 nM | C[C@H](CC(F)(F)F)C(=O)N1CC[C@@](O)(Cn2cnc(-c3ccccc3F)cc2=O)C2(CCCC2)C1 [Example 256, 6-(2-Fluorophenyl)-3-(((S)-10-hydroxy-7-((R)-4,4,4-trifluoro-2-methylbutanoyl)-7-azaspiro[4.5]decan-10-yl)methyl)pyrimidin-4(3H)-one] |
| < 500 nM | C[C@H](CC(F)(F)F)C(=O)N1CC[C@@](O)(Cn2cnc(-c3cccc(F)c3)cc2=O)C2(CCCC2)C1 [Example 257, 6-(3-Fluorophenyl)-3-(((S)-10-hydroxy-7-((R)-4,4,4-trifluoro-2-methylbutanoyl)-7-azaspiro[4.5]decan-10-yl)methyl)pyrimidin-4(3H)-one] |
| < 500 nM | C[C@H](CC(C)(F)F)C(=O)N1CC[C@@](O)(Cn2cnc(-c3ccccc3)cc2=O)C2(CCCC2)C1 [Example 258, 3-(((S)-7-((R)-4,4-Difluoro-2-methylpentanoyl)-10-hydroxy-7-azaspiro[4.5]decan-10-yl)methyl)-6-phenylpyrimidin-4(3H)-one] |
